Read-outs that look alike come from different tables or passages of the source.
Key:
[1] = Test of S9 metabolism stability in rat; assay type: in vitro ADME; details: rat S9, NADPH, 37° C., reaction time 30 min
Method: (§1) For the inventive compound, was carried out test of a S9 metabolism stability in human, rat and mouse.
(§2) Using MINISORP(75×12) NUNC-IMMUNO tube, a 0.5 μM I.S.-added reaction stopping solution (500 μL) and a 10 mmol/L NADPH solution (50 μL) were mixed. Subsequently, a S9 mixture (445 μL) and pure water (5 μL) were added to prepare an I.S.-added blank sample. Likewise, a S9 mixture (445 μL) and a 100 μM test substance solution (5 μL) were added, preparing an calibration curve sample.
(§3) A S9 mixture (1068 μL) was dispensed into MINISORP (75×12) NUNC-IMMUNO tube. On ice water, a 100 μM test substance solution (12 μL) was added, and pre-incubation was carried out at 37° C. for 5 minutes. An aliquot (450 μL) of this was fractionated, and a […] I.S.-added reaction stopping solution (500 μL) and a 10 mmol/L NADPH solution (50 μL) were added, to obtain an unreacted sample (reaction time; 0 min). To the residue after fractionation, a 10 mmol/L NADPH solution (70 μL) was added, and incubation was carried out at 37° C. for 30 minutes, and an aliquot (500 μL) was fractionated, then, a 0.5 μM I.S.-added reaction stopping solution (500 μL) was added, preparing a reacted sample (reaction time; 30 min). […]

[2] = Test of S9 metabolism stability in mouse; assay type: in vitro ADME; details: mouse S9, NADPH, 37° C., reaction time 30 min
Method: as §1, §2, §3

[3] = Test of S9 metabolism stability in human; assay type: in vitro ADME; details: human S9, NADPH, 37° C., reaction time 30 min
Method: as §1, §2, §3

androgen receptor = molecular target: T1, androgen receptor (Homo sapiens, UniProt P10275, DEL75-80/DUP470-473); test: Androgen receptor agonist activity by reporter gene assay method; assay type: cell-based
T1 construct: expressed in transfected cells; host or cells: human-derived CHP212 cells, stably transformed with pGL3-TATA-3xARE and pRC/RSV-hAR Kozak
T1 sequence (P10275 with tags, fused parts or gaps DEL75-80/DUP470-473): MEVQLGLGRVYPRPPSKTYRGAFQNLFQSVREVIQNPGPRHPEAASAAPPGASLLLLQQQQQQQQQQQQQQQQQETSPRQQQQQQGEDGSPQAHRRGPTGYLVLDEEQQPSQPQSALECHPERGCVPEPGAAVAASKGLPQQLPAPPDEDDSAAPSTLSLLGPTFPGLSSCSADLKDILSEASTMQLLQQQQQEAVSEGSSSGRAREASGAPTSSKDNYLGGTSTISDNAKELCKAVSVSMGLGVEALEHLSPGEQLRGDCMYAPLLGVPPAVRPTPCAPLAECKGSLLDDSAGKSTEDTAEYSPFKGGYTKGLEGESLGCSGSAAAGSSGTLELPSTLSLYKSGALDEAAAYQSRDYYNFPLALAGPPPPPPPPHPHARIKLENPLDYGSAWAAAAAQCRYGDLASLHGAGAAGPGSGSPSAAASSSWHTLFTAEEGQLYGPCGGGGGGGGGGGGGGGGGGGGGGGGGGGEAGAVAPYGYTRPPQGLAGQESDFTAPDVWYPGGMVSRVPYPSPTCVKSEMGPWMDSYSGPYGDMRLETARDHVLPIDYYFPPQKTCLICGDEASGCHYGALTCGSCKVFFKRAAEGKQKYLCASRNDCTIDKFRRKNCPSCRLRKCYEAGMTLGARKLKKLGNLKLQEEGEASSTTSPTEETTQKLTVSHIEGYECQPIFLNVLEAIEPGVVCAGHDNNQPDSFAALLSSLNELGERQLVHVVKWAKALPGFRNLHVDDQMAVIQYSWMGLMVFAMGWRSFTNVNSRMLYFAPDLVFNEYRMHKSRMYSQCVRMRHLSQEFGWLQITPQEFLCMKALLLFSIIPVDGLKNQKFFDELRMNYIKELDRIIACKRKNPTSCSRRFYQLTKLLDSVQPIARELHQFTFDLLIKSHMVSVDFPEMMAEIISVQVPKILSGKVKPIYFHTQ
Method: After shaking for 10 minutes, the luciferase activity was measured by EnVision 2103 Multilabel Reader (PerkinElmer Co., Ltd.).

[4] = agonist activity, transformed human-derived CHP212 cells with pGL3-TATA-3×ARE luciferase reporter and pRC/RSV-hAR Kozak, 24 hours, read-out: EC50

## N#Cc1sc(N2CCCCC2C(O)C(F)(F)F)cc1Br (stereo not drawn)
[1]
  Residual ratio (%) rat: 40.1%
[2]
  Residual ratio (%) mouse: 39.1%
[3]
  Residual ratio (%) human: 73.4%

## N#Cc1sc(N2CCCCC2C(O)C(F)(F)F)cc1Br (racemic) [Example 40, 3-bromo-5-[2-(2,2,2-trifluoro-1-hydroxyethyl)piperidin-1-yl]thiophene-2-carbonitrile]
Androgen receptor; [4]
  EC50: 14 nM

## CCCN(CC1CC1)c1cc(Br)c(C=O)s1 [Example 1, 3-bromo-5-[(cyclopropylmethyl)(propyl)amino]thiophene-2-carbaldehyde]
Androgen receptor; [4]
  EC50: > 10000 nM

## CCCN(CC1CC1)c1cc(Br)c(C#N)s1 [Example 2, 3-bromo-5-[(cyclopropylmethyl)(propyl)amino]thiophene-2-carbonitrile]
Androgen receptor; [4]
  EC50: 10.6 nM

## CCCN(CC1CC1)c1cc(C(F)(F)F)c(C#N)s1 [Example 5, 5-[(cyclopropylmethyl)(propyl)amino]-3-(trifluoromethyl)thiophene-2-carbonitrile]
Androgen receptor
  EC50: 11.9 nM

## CCCN(CC1CC1)c1cc(C#N)c(C(F)(F)F)s1 [Example 7, 5-[(cyclopropylmethyl)(propyl)amino]-2-(trifluoromethyl)thiophene-3-carbonitrile]
Androgen receptor
  EC50: 99.3 nM

## N#Cc1sc(N2CCCC2)cc1Br [Example 8, 3-bromo-5-(pyrrolidin-1-yl)thiophene-2-carbonitrile]
Androgen receptor; [4]
  EC50: 1400 nM

## CC1CCCCN1c1cc(Br)c(C#N)s1 (stereo not drawn) [Example 9, 3-bromo-5-(2-methylpiperidin-1-yl)thiophene-2-carbonitrile]
Androgen receptor; [4]
  EC50: 450 nM

## CC1CCN(c2cc(Br)c(C#N)s2)CC1 [Example 12, 3-bromo-5-(4-methylpiperidin-1-yl)thiophene-2-carbonitrile]
Androgen receptor; [4]
  EC50: 1500 nM

## CC(C)CN(C)c1cc(Br)c(C#N)s1 [Example 13, 3-bromo-5-[(methyl)(2-methylpropyl)amino]thiophene-2-carbonitrile]
Androgen receptor; [4]
  EC50: 1200 nM

## CCCN(CCC)c1cc(Br)c(C#N)s1 [Example 14, 3-bromo-5-(dipropylamino)thiophene-2-carbonitrile]
Androgen receptor; [4]
  EC50: 43.3 nM

## C=CCN(CC=C)c1cc(Br)c(C#N)s1 [Example 15, 3-bromo-5-(diallylamino)thiophene-2-carbonitrile]
Androgen receptor; [4]
  EC50: 13.1 nM

## COCCN(CCOC)c1cc(Br)c(C#N)s1 [Example 16, 5-[bis(2-methoxyethyl)amino]-3-bromothiophene-2-carbonitrile]
Androgen receptor; [4]
  EC50: 1600 nM

## CCC1CCCCN1c1cc(Br)c(C#N)s1 (stereo not drawn) [Example 17, 3-bromo-5-(2-ethylpiperidin-1-yl)thiophene-2-carbonitrile]
Androgen receptor; [4]
  EC50: 4.9 nM

## CCCC1CCCCN1c1cc(Br)c(C#N)s1 (stereo not drawn) [Example 18, 3-bromo-5-(2-propylpiperidin-1-yl)thiophene-2-carbonitrile]
Androgen receptor; [4]
  EC50: 36.2 nM

## CCCN(CC(F)(F)F)c1cc(Br)c(C#N)s1 [Example 23, 3-bromo-5-[(propyl)(2,2,2-trifluoroethyl)amino]thiophene-2-carbonitrile]
Androgen receptor
  EC50: 5.4 nM

## CCCN(CC(=O)OCC)c1cc(Br)c(C#N)s1 [Example 24, N-(4-bromo-5-cyanothiophen-2-yl)-N-propylglycine ethyl ester]
Androgen receptor; [4]
  EC50: > 10000 nM

## CCCN(CC(=O)NC)c1cc(Br)c(C#N)s1 [Example 25, N2-(4-bromo-5-cyanothiophen-2-yl)-N-methyl-N2-propylglycinamide]
Androgen receptor; [4]
  EC50: 1500 nM

## CCCN(CC(=O)O)c1cc(Br)c(C#N)s1 [Example 26, N-(4-bromo-5-cyanothiophen-2-yl)-N-propylglycine]
Androgen receptor; [4]
  EC50: > 10000 nM

## CCCN(CC#N)c1cc(Br)c(C#N)s1 [Example 28, 3-bromo-5-[(cyanomethyl)(propyl)amino]thiophene-2-carbonitrile]
Androgen receptor; [4]
  EC50: 580 nM

## CCCN(CC1OCCO1)c1cc(Br)c(C#N)s1 [Example 31, 3-bromo-5-[(1,3-dioxolan-2-ylmethyl)(propyl)amino]thiophene-2-carbonitrile]
Androgen receptor; [4]
  EC50: 750 nM

## CCCN(CC=O)c1cc(Br)c(C#N)s1 [Example 32, 3-bromo-5-[(2-oxoethyl)(propyl)amino]thiophene-2-carbonitrile]
Androgen receptor; [4]
  EC50: > 10000 nM

## CCC1CCCC(=O)N1c1cc(Br)c(C#N)s1 (stereo not drawn) [Example 35, 3-bromo-5-(2-ethyl-6-oxopiperidin-1-yl)thiophene-2-carbonitrile]
Androgen receptor; [4]
  EC50: > 10000 nM

## CC(O)C1CCCCN1c1cc(Br)c(C#N)s1 (stereo not drawn) [Example 41, 3-bromo-5-[2-(1-hydroxyethyl)piperidin-1-yl]thiophene-2-carbonitrile]
Androgen receptor; [4]
  EC50: 560 nM

## N#Cc1sc(N2CCCCC2C(O)C(F)(F)F)cc1C(F)(F)F (stereo not drawn) [Example 43, 5-[2-(2,2,2-trifluoro-1-hydroxyethyl)piperidin-1-yl]-3-trifluoromethyl-thiophene-2-carbonitrile]
Androgen receptor
  EC50: > 10000 nM

## CCCN(CC(F)(F)F)c1cc(C(F)(F)F)c(C#N)s1 [Example 45, 5-[(propyl)(2,2,2-trifluoroethyl)amino]-3-trifluoromethylthiophene-2-carbonitrile]
Androgen receptor
  EC50: 3.1 nM

## CCCN(CC(F)(F)F)c1cc(C)c(C#N)s1 [Example 46, 5-[(propyl)(2,2,2-trifluoroethyl)amino]-3-methylthiophene-2-carbonitrile]
Androgen receptor
  EC50: 25.2 nM

## N#Cc1sc(N2CCCCC2C#N)cc1Br (stereo not drawn) [Example 47, 5-(2-cyanopiperidin-1-yl)-3-bromo-thiophene-2-carbonitrile]
Androgen receptor; [4]
  EC50: 1500 nM

From patent US20120065231A1, “THIOPHENE DERIVATIVE” (SUMITOMO CHEMICAL COMPANY LTD., priority 2009, published 2012)
